The target of one experiment is T1, EPHA6 (Homo sapiens, UniProt Q9UF33).
T1 construct: full-length kinase, C-terminal NanoLuc fusion, transfected HEK293 cells
The experiment is described as follows: NanoBRET target engagement, Tracer K10 displacement in live HEK293 cells. It counts as cell-based. To be noted: […] h, […] C, n = […]. (BRET reads energy transfer from a luciferase to a nearby fluorophore.)

Another experiment addresses STK33 (Homo sapiens, UniProt Q9BYT3). The experiment is described as follows: cell-based. Set-up: species or system HEK293; NanoBRET live-cell target engagement; % occupancy from displacement of tracer K10 on NanoLuc-kinase fusions, mean n=3. To be noted: HEK293; D=N; E=250; % occupancy, tracer K10 displacement. Here is the method: (§1) • 18. Prepare 10× test compounds in OptiMEM • a. Dilute the test compound to 1000× in DMSO (or the test compound solvent). […] Add 10μL per well of 10× test compound or 10μL of the DMSO control to the 96-well plates containing cells with 1× tracer. Mix on orbital shaker for 15 s at 900 rpm. • 20. Incubate the plate at 37°C + 5% CO2 incubator for 2hr. Allow plate to cool to RT for ∼15 min, then proceed to NanoBRET^TM Assay section below. • 21. Immediately before the BRET measurements, prepare 3× Complete NanoBRET^TM Nano-Glo® Substrate in OptiMEM without serum or phenol red. […] Mix gently by inverting 5–10 times in a conical tube. (The final concentration of Extracellular NanoLuc inhibitor in the 3× solution is 60 μM, for a working concentration of 20 μM.) • a. Note: 3× solutions should be used within 1.5 h after preparation. • 22. […] Incubate 2–3 min at RT. Following addition of NanoBRET^TM Nano-Glo® Substrate, measure donor emission (e.g., 450 nm) and acceptor emission (e.g., 610 nm or 630 nm) using a NanoBRET™-compatible luminometer. Fractional occupancy Quantitation • 2. Determine Fractional Occupancy with the following equation; % Occupancy = [1 – (X – Z)/( Y – Z)]∗100 • Where: • X = BRET in the presence of the test compound and tracer, • Y = BRET in the presence of the 100% BRET Control (Tracer + DMSO) • Z = BRET for the Zero BRET Control, e.g., • a. […]

The next experiment addresses LTK (Homo sapiens, UniProt P29376). The experiment in a line: cell-based. Set-up: species or system HEK293; NanoBRET live-cell target engagement; % occupancy from displacement of tracer K10 on NanoLuc-kinase fusions, mean n=3. The conditions noted are these: D=C; E=100; % occupancy, tracer K10 displacement; 1 µM; binder. Here is the method:
as §1

The next experiment concerns the target FGFR2 (Homo sapiens, UniProt P21802). The experiment in a line: cell-based. The arrangement: NanoBRET live-cell target engagement; % occupancy from displacement of tracer K10 on NanoLuc-kinase fusions, mean n=3. The conditions noted are these: HEK293, read-out: % inhibition. In a few lines: (§2)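 Live-cell NanoBRET target engagement: cells expressing kinase–NanoLuc fusion with tracer treated with compound 2 h at 37 °C, 5% CO2. BRET read from donor (450 nm) and acceptor (610/630 nm) emission with 20 μM extracellular NanoLuc inhibitor; % occupancy calculated relative to tracer+DMSO and zero-BRET controls.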

Another experiment concerns the target PLK4 (Homo sapiens, UniProt O00444). The experiment is described as follows: cell-based. Set-up: NanoBRET live-cell target engagement; % occupancy from displacement of tracer K10 on NanoLuc-kinase fusions, mean n=3. The conditions noted are these: HEK293, read-out: % inhibition. In a few lines:
as §2

The next experiment addresses T2, MLTK (Homo sapiens, UniProt Q9NYL2).
T2 construct: gene MAP3K20
The experiment in a line: cell-based. To be noted: HEK293, read-out: % inhibition. Set-up: NanoBRET live-cell target engagement; % occupancy from displacement of tracer K10 on NanoLuc-kinase fusions, mean n=3. The method, boiled down: as §2

Another experiment has as its target CDK15 (Homo sapiens, UniProt Q96Q40). The experiment in a line: cell-based. The arrangement: NanoBRET live-cell target engagement; % occupancy from displacement of tracer K10 on NanoLuc-kinase fusions, mean n=3. The conditions noted are these: HEK293, read-out: % inhibition. In a few lines:
as §2

The target of a further experiment is CAMK2A (Homo sapiens, UniProt Q9UQM7). The experiment is described as follows: cell-based. Set-up: NanoBRET live-cell target engagement; % occupancy from displacement of tracer K10 on NanoLuc-kinase fusions, mean n=3. The conditions noted are these: HEK293, read-out: % inhibition. In a few lines: as §2
The next experiment concerns the target FGFR3 (Homo sapiens, UniProt P22607). The experiment in a line: cell-based. Set-up: NanoBRET live-cell target engagement; % occupancy from displacement of tracer K10 on NanoLuc-kinase fusions, mean n=3. To be noted: HEK293, read-out: % inhibition. The method, boiled down: as §2
The target of a further experiment is HIPK2 (Homo sapiens, UniProt Q9H2X6). The experiment is described as follows: cell-based. Set-up: NanoBRET live-cell target engagement; % occupancy from displacement of tracer K10 on NanoLuc-kinase fusions, mean n=3. The conditions noted are these: HEK293, read-out: % inhibition. The method, boiled down:
as §2

A further experiment concerns the target T3, JNK3 (Homo sapiens, UniProt P53779).
T3 construct: gene MAPK10
The experiment in a line: cell-based. The arrangement: NanoBRET live-cell target engagement; % occupancy from displacement of tracer K10 on NanoLuc-kinase fusions, mean n=3. To be noted: HEK293, read-out: % inhibition. The method, boiled down: as §2

Another experiment has as its target NIM1K (Homo sapiens, UniProt Q8IY84). The experiment is described as follows: cell-based. Set-up: NanoBRET live-cell target engagement; % occupancy from displacement of tracer K10 on NanoLuc-kinase fusions, mean n=3. To be noted: HEK293, read-out: % inhibition. In a few lines: as §2
Another experiment addresses SIK3 (Homo sapiens, UniProt Q9Y2K2). The experiment is described as follows: cell-based. Set-up: NanoBRET live-cell target engagement; % occupancy from displacement of tracer K10 on NanoLuc-kinase fusions, mean n=3. To be noted: HEK293, read-out: % inhibition. The method, boiled down: as §2
Another experiment deals with CSNK2A2 (Homo sapiens, UniProt P19784). The experiment in a line: cell-based. To be noted: HEK293, read-out: % inhibition. The arrangement: NanoBRET live-cell target engagement; % occupancy from displacement of tracer K10 on NanoLuc-kinase fusions, mean n=3. The method, boiled down:
as §2

Another experiment concerns the target MAST4 (Homo sapiens, UniProt O15021). The experiment is described as follows: cell-based. The arrangement: NanoBRET live-cell target engagement; % occupancy from displacement of tracer K10 on NanoLuc-kinase fusions, mean n=3. The conditions noted are these: HEK293, read-out: % inhibition. The method, boiled down:
as §2

Experimental findings from PMC8449129, “Single tracer-based protocol for broad-spectrum kinase profiling in live cells with NanoBRET” (STAR Protocols, 2021) are described below.

The term inhibition denotes the change of the read-out against control, counted positive when it falls. The term % inhibition denotes the percentage by which the read-out fell short of the control. Read a low % inhibition as little suppression.

T1 sequence (Q9UF33 23-1036): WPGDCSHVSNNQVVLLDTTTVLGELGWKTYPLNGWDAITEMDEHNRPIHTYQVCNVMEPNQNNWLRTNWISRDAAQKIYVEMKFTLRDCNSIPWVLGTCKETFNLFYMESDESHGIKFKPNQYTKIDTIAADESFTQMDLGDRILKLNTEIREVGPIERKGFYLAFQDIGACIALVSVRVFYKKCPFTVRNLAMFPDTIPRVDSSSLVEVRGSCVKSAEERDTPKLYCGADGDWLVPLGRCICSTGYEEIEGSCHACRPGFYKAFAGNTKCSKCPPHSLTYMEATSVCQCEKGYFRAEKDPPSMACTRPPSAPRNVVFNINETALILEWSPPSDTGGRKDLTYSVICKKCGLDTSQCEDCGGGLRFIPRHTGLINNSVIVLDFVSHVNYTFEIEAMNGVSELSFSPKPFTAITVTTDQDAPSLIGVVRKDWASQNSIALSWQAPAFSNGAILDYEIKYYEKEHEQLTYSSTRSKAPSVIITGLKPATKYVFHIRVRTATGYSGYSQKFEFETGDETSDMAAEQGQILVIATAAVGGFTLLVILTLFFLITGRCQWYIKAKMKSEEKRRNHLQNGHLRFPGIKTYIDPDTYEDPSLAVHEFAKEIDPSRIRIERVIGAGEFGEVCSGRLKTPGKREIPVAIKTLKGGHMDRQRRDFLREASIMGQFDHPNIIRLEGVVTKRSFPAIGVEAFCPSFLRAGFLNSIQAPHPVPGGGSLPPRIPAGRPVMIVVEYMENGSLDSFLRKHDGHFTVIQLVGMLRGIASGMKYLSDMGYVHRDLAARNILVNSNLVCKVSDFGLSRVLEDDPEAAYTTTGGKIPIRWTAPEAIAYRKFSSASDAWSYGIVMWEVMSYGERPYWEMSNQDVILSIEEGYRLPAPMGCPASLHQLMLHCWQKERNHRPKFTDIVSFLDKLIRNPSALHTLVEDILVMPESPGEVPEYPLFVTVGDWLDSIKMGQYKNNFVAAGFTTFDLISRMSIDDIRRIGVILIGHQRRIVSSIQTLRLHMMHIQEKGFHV
T3 sequence (P53779 whole entry): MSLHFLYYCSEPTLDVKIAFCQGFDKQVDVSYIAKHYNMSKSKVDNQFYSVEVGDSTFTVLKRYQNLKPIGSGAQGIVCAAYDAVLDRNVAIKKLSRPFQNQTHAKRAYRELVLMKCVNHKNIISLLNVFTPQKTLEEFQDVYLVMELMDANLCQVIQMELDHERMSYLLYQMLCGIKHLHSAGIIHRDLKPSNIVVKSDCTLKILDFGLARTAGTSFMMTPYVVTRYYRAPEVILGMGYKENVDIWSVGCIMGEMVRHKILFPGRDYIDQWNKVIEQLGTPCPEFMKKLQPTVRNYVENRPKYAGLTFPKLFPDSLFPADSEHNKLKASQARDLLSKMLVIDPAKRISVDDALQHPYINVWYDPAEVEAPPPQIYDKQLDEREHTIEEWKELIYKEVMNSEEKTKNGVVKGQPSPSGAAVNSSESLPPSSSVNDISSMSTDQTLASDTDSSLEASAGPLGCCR
Sequence of SIK3 (Q9Y2K2 whole entry, the tested form may be a part): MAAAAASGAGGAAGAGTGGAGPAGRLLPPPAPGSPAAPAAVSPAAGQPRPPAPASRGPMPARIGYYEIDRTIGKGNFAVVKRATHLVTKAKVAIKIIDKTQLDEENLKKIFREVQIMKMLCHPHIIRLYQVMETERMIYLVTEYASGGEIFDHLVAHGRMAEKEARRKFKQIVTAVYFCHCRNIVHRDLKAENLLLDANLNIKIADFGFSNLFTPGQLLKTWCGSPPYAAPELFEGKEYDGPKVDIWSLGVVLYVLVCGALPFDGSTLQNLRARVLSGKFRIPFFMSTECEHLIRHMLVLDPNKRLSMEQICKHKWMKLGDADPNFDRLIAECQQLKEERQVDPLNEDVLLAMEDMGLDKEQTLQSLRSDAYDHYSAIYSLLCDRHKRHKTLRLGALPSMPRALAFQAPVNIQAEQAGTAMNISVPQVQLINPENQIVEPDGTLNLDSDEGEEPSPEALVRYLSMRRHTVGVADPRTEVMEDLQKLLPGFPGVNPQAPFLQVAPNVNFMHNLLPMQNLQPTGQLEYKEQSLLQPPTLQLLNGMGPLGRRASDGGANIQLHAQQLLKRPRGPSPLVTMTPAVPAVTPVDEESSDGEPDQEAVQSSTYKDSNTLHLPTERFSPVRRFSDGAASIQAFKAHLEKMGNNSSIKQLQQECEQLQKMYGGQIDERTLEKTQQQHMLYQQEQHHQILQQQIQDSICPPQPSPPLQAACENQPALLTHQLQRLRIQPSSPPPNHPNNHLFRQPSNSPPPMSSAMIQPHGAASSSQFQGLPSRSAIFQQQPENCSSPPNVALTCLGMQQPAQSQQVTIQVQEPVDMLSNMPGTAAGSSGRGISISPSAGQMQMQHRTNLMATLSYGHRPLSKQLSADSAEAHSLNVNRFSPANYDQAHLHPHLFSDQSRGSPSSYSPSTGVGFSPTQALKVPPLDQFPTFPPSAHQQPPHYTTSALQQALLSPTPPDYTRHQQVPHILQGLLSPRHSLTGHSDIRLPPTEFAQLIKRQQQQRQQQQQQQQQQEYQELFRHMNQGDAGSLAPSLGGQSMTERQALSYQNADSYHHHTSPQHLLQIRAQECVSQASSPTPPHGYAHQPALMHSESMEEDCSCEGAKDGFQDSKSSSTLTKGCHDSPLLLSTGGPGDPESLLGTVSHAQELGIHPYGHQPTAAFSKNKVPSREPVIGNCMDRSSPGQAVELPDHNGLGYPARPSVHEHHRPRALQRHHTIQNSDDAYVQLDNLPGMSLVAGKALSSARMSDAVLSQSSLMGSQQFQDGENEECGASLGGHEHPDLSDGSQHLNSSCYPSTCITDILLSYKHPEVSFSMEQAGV
Sequence of PLK4 (O00444 whole entry, the tested form may be a part): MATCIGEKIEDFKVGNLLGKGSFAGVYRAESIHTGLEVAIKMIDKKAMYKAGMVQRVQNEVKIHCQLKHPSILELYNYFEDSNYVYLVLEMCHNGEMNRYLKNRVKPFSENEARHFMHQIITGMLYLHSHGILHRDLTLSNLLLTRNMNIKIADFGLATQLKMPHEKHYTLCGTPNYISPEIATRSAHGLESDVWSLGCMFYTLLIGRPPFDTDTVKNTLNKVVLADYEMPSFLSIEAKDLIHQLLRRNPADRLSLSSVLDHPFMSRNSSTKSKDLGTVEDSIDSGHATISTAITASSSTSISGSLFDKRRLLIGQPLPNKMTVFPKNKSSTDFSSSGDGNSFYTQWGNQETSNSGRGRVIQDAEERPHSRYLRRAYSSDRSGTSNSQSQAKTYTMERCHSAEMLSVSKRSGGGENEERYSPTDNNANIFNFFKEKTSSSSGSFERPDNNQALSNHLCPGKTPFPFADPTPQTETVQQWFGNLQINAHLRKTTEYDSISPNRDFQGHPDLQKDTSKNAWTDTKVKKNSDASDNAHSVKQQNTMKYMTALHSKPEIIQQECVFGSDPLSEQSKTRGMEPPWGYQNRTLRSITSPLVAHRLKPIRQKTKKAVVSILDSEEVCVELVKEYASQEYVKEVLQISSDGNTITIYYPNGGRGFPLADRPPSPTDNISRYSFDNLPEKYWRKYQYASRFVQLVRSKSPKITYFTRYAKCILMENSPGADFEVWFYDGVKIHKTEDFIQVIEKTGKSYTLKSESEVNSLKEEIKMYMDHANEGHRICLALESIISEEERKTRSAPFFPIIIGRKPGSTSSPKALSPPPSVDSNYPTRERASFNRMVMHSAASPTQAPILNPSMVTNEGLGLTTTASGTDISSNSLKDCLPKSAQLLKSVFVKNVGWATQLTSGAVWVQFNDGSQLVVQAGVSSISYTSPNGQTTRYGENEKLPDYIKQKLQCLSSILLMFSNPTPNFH
Sequence of FGFR3 (P22607 whole entry, the tested form may be a part): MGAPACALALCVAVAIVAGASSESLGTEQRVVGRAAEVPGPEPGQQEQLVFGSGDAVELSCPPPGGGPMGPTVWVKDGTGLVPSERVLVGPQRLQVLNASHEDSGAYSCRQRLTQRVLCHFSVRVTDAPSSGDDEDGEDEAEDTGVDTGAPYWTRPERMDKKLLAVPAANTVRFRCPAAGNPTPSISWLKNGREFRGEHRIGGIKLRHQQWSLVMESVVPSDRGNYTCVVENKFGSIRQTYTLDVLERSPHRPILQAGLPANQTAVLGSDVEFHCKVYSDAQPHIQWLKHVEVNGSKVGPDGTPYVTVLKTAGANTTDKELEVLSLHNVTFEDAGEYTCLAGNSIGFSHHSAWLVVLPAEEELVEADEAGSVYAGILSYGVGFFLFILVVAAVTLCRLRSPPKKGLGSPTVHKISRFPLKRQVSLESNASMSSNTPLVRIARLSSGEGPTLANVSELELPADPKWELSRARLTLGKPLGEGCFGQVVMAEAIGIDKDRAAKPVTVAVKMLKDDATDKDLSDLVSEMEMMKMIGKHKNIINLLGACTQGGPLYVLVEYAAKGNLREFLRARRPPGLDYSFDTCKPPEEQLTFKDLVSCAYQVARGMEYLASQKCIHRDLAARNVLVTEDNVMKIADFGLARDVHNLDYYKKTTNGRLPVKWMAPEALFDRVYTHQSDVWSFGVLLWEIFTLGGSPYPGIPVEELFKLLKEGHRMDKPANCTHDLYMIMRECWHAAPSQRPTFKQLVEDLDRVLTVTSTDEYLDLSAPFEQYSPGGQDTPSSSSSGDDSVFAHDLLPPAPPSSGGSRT
Sequence of STK33 (Q9BYT3 whole entry, the tested form may be a part): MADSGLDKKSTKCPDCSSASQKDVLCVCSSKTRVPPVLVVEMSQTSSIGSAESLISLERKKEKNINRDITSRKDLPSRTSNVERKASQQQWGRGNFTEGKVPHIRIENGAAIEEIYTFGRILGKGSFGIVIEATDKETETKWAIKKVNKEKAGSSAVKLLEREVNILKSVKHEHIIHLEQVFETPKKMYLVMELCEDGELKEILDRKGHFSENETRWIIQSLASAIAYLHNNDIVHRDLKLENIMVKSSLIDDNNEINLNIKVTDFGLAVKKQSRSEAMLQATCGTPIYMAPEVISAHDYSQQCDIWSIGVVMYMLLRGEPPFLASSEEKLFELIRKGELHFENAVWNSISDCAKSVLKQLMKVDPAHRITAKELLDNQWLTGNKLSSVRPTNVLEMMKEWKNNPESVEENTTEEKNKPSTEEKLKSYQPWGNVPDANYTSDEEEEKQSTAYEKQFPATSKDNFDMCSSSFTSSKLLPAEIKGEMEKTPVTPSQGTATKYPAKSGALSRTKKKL
Source text for EPHA6: NanoBRET target engagement, Tracer K10 displacement in live HEK293 cells on EPHA6

Take `C[C@@H](Oc1cc(-c2cnn(C3CCNCC3)c2)cnc1N)c1c(Cl)ccc(F)c1Cl` [crizotinib]: at EPHA6, the “Crizotinib % occupancy, 1 uM” value was 64 ± 5.1%. Besides, the inhibition at 1 µM is -3% on STK33; 10% at FGFR2; 4% on PLK4; -3% at MLTK; 3% at CDK15; 3% on CAMK2A. Besides, the inhibition at 1 µM on FGFR3 is 14%; at HIPK2 it was 5%; on JNK3, -4%; on NIM1K, -3%; at SIK3, 0%; at CSNK2A2, -14%. Also, at MAST4, the inhibition at 1 µM worked out at 6%. At LTK, the “% inhibition” value stood at 87%.
